# Measurements reported in PubChem BioAssay AID248 (DTP/NCI, 2004).
# Where “and” joins values, the source holds several entries; their conditions need not be identical. Identical values can stand only once. Toxic doses and inconclusive results are not listed.
# Test system: L1210 leukemia ip in BDF1 mice, survival T/C
# Test: NCI In Vivo Anticancer Drug Screen. Data for tumor model L1210 Leukemia (intraperitoneal) in B6D2F1 (BDF1) mice
# Details: endpoint: mean survival time, higher = longer survival
# How it was run: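 Value reflects the ratio of survival in compound-treated mice to survival in vehicle-treated controls, with both groups carrying the same transplanted tumor.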
# [1] = dose: 100.0 mg/kg/injection, schedule: Q01DX001 (ip), vehicle: Klucel (hydroxypropylcellulose) (HPC)
# [2] = dose: 200.0 mg/kg/injection, schedule: Q01DX001 (ip), vehicle: Klucel (hydroxypropylcellulose) (HPC)
# [3] = dose: 400.0 mg/kg/injection, schedule: Q01DX001 (ip), vehicle: Klucel (hydroxypropylcellulose) (HPC)
# [4] = dose: 100.0 mg/kg/injection, schedule: Q04DX002 (ip), vehicle: Klucel (hydroxypropylcellulose) (HPC)
# [5] = dose: 200.0 mg/kg/injection, schedule: Q04DX002 (ip), vehicle: Klucel (hydroxypropylcellulose) (HPC)
# [6] = dose: 400.0 mg/kg/injection, schedule: Q04DX002 (ip), vehicle: Klucel (hydroxypropylcellulose) (HPC)
# [7] = dose: 100.0 mg/kg/injection, schedule: Q01DX001 (ip), vehicle: saline
# [8] = dose: 100.0 mg/kg/injection, schedule: Q04DX003 (ip), vehicle: Klucel (hydroxypropylcellulose) (HPC)
# [9] = dose: 200.0 mg/kg/injection, schedule: Q04DX003 (ip), vehicle: Klucel (hydroxypropylcellulose) (HPC)
# [10] = dose: 400.0 mg/kg/injection, schedule: Q04DX003 (ip), vehicle: Klucel (hydroxypropylcellulose) (HPC)
# [11] = dose: 100.0 mg/kg/injection, schedule: Q01DX009 (ip), vehicle: Klucel (hydroxypropylcellulose) (HPC)
# [12] = dose: 200.0 mg/kg/injection, schedule: Q01DX009 (ip), vehicle: Klucel (hydroxypropylcellulose) (HPC)
# [13] = dose: 400.0 mg/kg/injection, schedule: Q01DX009 (ip), vehicle: Klucel (hydroxypropylcellulose) (HPC)
# [14] = dose: 100.0 mg/kg/injection, schedule: Q01DX009 (ip), vehicle: saline
# [15] = dose: 100.0 mg/kg/injection, schedule: Q04DX003 (ip), vehicle: saline
# [16] = dose: 200.0 mg/kg/injection, schedule: Q01DX009 (ip), vehicle: saline
# [17] = dose: 200.0 mg/kg/injection, schedule: Q04DX003 (ip), vehicle: saline
# [18] = dose: 50.0 mg/kg/injection, schedule: Q04DX003 (ip), vehicle: saline
# [19] = dose: 100.0 mg/kg/injection, schedule: Q01DX001 (ip), vehicle: carboxymethylcellulose (CMC)
# [20] = dose: 200.0 mg/kg/injection, schedule: Q01DX001 (ip), vehicle: carboxymethylcellulose (CMC)
# [21] = dose: 400.0 mg/kg/injection, schedule: Q01DX001 (ip), vehicle: carboxymethylcellulose (CMC)
structure (smiles),measurement,setting,value
CC1(c2ccccc2)SC(C)(c2ccccc2)SC(c2ccccc2)(c2ccccc2)S1 (stereo unspecified),T/C,[1],100 % of control
same,T/C,[2],98 % of control
same,T/C,[3],91 % of control
COc1ccc(/C=N/NC(=O)c2ccc(N)cc2)cc1,T/C,[4],106 % of control
same,T/C,[5],100 % of control
same,T/C,[6],95 % of control
Oc1ccc2c(c1)CNCC2,T/C,[7],96 % of control
same,T/C,"dose: 200.0 mg/kg/injection, schedule: Q01DX001 (ip), vehicle: saline",98 % of control
same,T/C,"dose: 400.0 mg/kg/injection, schedule: Q01DX001 (ip), vehicle: saline",102 % of control
CCCCCCCCCCCCCCCC1=NN(c2ccccc2)C(=O)C1N=Nc1ccccc1 (stereo unspecified),T/C,[8],102 % of control
same,T/C,[9],98 % of control
same,T/C,[10],94 % of control
CC(=O)n1c(O)c(N=NC(=O)c2ccccc2[N+](=O)[O-])c2ccccc21,T/C,[11],86 % of control
same,T/C,[12],93 % of control
same,T/C,[13],89 % of control
BrC1C2C=CCC1CC2 (stereo unspecified),T/C,[14],91 % of control
same,T/C,[15],96 % of control
same,T/C,[16],97 % of control
same,T/C,[17],96 % of control
same,T/C,"dose: 400.0 mg/kg/injection, schedule: Q01DX009 (ip), vehicle: saline",94 % of control
same,T/C,"dose: 400.0 mg/kg/injection, schedule: Q04DX003 (ip), vehicle: saline",94 % of control
OCC1OCC(O)C(O)C1O (stereo unspecified),T/C,"dose: 50.0 mg/kg/injection, schedule: Q01DX009 (ip), vehicle: saline",94 % of control
same,T/C,[14],91 % of control
same,T/C,[16],88 % of control
COc1ccccc1NC(=O)Nc1cccc(C)c1C,T/C,[11],96 % of control
same,T/C,[8],93 % of control
same,T/C,[12],92 % of control
same,T/C,[9],93 % of control
same,T/C,[13],100 % of control
same,T/C,[10],92 % of control
CCCCCC/C=C1/CCC/C1=N\NC(=O)c1ccc[n+](C)c1,T/C,"dose: 25.0 mg/kg/injection, schedule: Q04DX003 (ip), vehicle: saline",100 % of control
same,T/C,[18],101 % of control
same,T/C,[15],100 % of control
S=c1nc[nH]c2c1ncn2C1CCCO1 (stereo unspecified),T/C,"dose: 75.0 mg/kg/injection, schedule: Q01DX Z (ip), vehicle: methylcellulose (MC)",159 % of control
C(=N\N=C\c1c[nH]c2ccccc12)/c1c[nH]c2ccccc12,T/C,"dose: 100.0 mg/kg/injection, schedule: Q01DX009 (ip), vehicle: gum acacia",87 % of control
same,T/C,"dose: 100.0 mg/kg/injection, schedule: Q04DX003 (ip), vehicle: gum acacia",92 % of control
same,T/C,"dose: 200.0 mg/kg/injection, schedule: Q01DX009 (ip), vehicle: gum acacia",87 % of control
same,T/C,"dose: 200.0 mg/kg/injection, schedule: Q04DX003 (ip), vehicle: gum acacia",89 % of control
same,T/C,"dose: 400.0 mg/kg/injection, schedule: Q01DX009 (ip), vehicle: gum acacia",86 % of control
same,T/C,"dose: 400.0 mg/kg/injection, schedule: Q04DX003 (ip), vehicle: gum acacia",89 % of control
COc1ccc(Cl)cc1NC(=O)Oc1ccc2ccccc2c1,T/C,"dose: 100.0 mg/kg/injection, schedule: Q01DX001 (ip), vehicle: saline with Tween-80",89 % of control
same,T/C,"dose: 100.0 mg/kg/injection, schedule: Q01DX009 (ip), vehicle: saline with Tween-80",98 % of control and 100 % of control
same,T/C,"dose: 100.0 mg/kg/injection, schedule: Q04DX003 (ip), vehicle: saline with Tween-80",91 % of control
same,T/C,"dose: 200.0 mg/kg/injection, schedule: Q01DX001 (ip), vehicle: saline with Tween-80",100 % of control
same,T/C,"dose: 200.0 mg/kg/injection, schedule: Q01DX009 (ip), vehicle: saline with Tween-80",98 % of control and 92 % of control
same,T/C,"dose: 200.0 mg/kg/injection, schedule: Q04DX003 (ip), vehicle: saline with Tween-80",96 % of control
same,T/C,"dose: 400.0 mg/kg/injection, schedule: Q01DX001 (ip), vehicle: saline with Tween-80",96 % of control
same,T/C,"dose: 400.0 mg/kg/injection, schedule: Q01DX009 (ip), vehicle: saline with Tween-80",100 % of control and 91 % of control
same,T/C,"dose: 400.0 mg/kg/injection, schedule: Q04DX003 (ip), vehicle: saline with Tween-80",103 % of control
COc1ccc(N(N=Nc2ccccc2)C(C)=O)cc1,T/C,"dose: 40.0 mg/kg/injection, schedule: Q01DX009 (ip), vehicle: Klucel (hydroxypropylcellulose) (HPC)",96 % of control
same,T/C,"dose: 75.0 mg/kg/injection, schedule: Q01DX001 (ip), vehicle: Klucel (hydroxypropylcellulose) (HPC)",96 % of control
same,T/C,"dose: 75.0 mg/kg/injection, schedule: Q01DX009 (ip), vehicle: Klucel (hydroxypropylcellulose) (HPC)",101 % of control
same,T/C,"dose: 150.0 mg/kg/injection, schedule: Q01DX001 (ip), vehicle: Klucel (hydroxypropylcellulose) (HPC)",90 % of control
same,T/C,"dose: 150.0 mg/kg/injection, schedule: Q01DX009 (ip), vehicle: Klucel (hydroxypropylcellulose) (HPC)",112 % of control
same,T/C,"dose: 300.0 mg/kg/injection, schedule: Q01DX001 (ip), vehicle: Klucel (hydroxypropylcellulose) (HPC)",86 % of control
O=C(COc1ccccc1)Nc1ccc(Br)cc1,T/C,[4],103 % of control
same,T/C,[5],103 % of control
same,T/C,[6],95 % of control
CSc1ccc(OC(=O)Oc2ccc(SC)c(C)c2)cc1C,T/C,[19],92 % of control
same,T/C,[20],92 % of control
same,T/C,[21],97 % of control
CCc1cc(C(C)=O)c(CC)s1,T/C,"dose: 100.0 mg/kg/injection, schedule: Q01DX009 (sc), vehicle: olive oil, sesame oil, peanut oil",94 % of control
same,T/C,"dose: 100.0 mg/kg/injection, schedule: Q04DX003 (sc), vehicle: olive oil, sesame oil, peanut oil",104 % of control
same,T/C,"dose: 200.0 mg/kg/injection, schedule: Q01DX009 (sc), vehicle: olive oil, sesame oil, peanut oil",97 % of control
same,T/C,"dose: 200.0 mg/kg/injection, schedule: Q04DX003 (sc), vehicle: olive oil, sesame oil, peanut oil",100 % of control
same,T/C,"dose: 400.0 mg/kg/injection, schedule: Q01DX009 (sc), vehicle: olive oil, sesame oil, peanut oil",104 % of control
same,T/C,"dose: 400.0 mg/kg/injection, schedule: Q04DX003 (sc), vehicle: olive oil, sesame oil, peanut oil",109 % of control
Cc1cc(=O)[nH]c(NCCCCC(N)C(=O)O)n1 (stereo unspecified),T/C,[18],103 % of control
same,T/C,[15],100 % of control
same,T/C,[17],101 % of control
COc1cc(NC(=O)CC(C)=O)cc2c(C)cc(=O)[nH]c12,T/C,[1],104 % of control
same,T/C,[8],102 % of control
same,T/C,[2],96 % of control
same,T/C,[9],107 % of control
same,T/C,[3],102 % of control
same,T/C,[10],102 % of control
CC1(C)CCC(=NO)CC1,T/C,"dose: 75.0 mg/kg/injection, schedule: Q01DX001 (ip), vehicle: other",103 % of control
same,T/C,"dose: 150.0 mg/kg/injection, schedule: Q01DX001 (ip), vehicle: other",97 % of control
CC(=NC(CC(C)C)C(=O)O)NC(CC(C)C)C(=O)O (stereo unspecified),T/C,[11],101 % of control
same,T/C,[12],110 % of control
same,T/C,[13],103 % of control
ClCCN(CCCl)c1ccc(C=Nc2ccc(-c3ccccn3)cc2)cc1,T/C,"dose: 50.0 mg/kg/injection, schedule: Q01DX001 (ip), vehicle: carboxymethylcellulose (CMC)",102 % of control
same,T/C,[19],96 % of control
same,T/C,[20],91 % of control
same,T/C,[21],100 % of control
CCC(C)CC(C)c1ccncc1 (stereo unspecified),T/C,"dose: 5.0 mg/kg/injection, schedule: Q01DX001 (ip), vehicle: saline",97 % of control
same,T/C,"dose: 10.0 mg/kg/injection, schedule: Q01DX001 (ip), vehicle: saline",100 % of control
same,T/C,"dose: 20.0 mg/kg/injection, schedule: Q01DX001 (ip), vehicle: saline",100 % of control
same,T/C,"dose: 40.0 mg/kg/injection, schedule: Q01DX001 (ip), vehicle: saline",97 % of control
same,T/C,"dose: 80.0 mg/kg/injection, schedule: Q01DX001 (ip), vehicle: saline",97 % of control
same,T/C,[7],97 % of control
